Data on one substance can be found in patent publication US6737435B1, “Indole derivatives and their use as MCP-1 antagonist” (AstraZeneca AB, priority 1999, dated 2004).

Assay [1] deals with THP-1 cells. Description: hMCP-1 mediated chemotaxis. Conditions: biphasic response. The assay is classed as cell-based, human. The procedure:
In vitro chemotaxis assays were performed using the human monocytic cell line THP-1. Cell migration through polycarbonate membranes was measured by enumerating those passing through either directly by Coulter counting or indirectly by use of a colourimetric viability assay measuring the cleavage of a tetrazolium salt by the mitochondrial respiratory chain (Scudiero D. A. et al. 1988, Cancer Res., 48, 4827-4833).
Chemoattractants were introduced into a 96-well microtitre plate which forms the lower well of a chemotaxis chamber fitted with a PVP-free 5 μm poresize polycarbonate adhesive framed filter membrane (NeuroProbe MB series, Cabin John, Md. 20818, USA) according to the manufacturer's instructions. […] The plate was incubated at 37° C. for 3 h and the absorbance of the soluble formazan product was read on a microtitre plate reader at 450 nm. The data was input into a spreadsheet, corrected for any random migration in the absence of chemoattractant and the average absorbance values, standard error of the mean, and significance tests were calculated. hMCP-1 induced concentration dependent cell migration with a characteristic biphasic response, maximal […]. […]

Another assay deals with T1, MCP-1 receptor B (CCR2B) (Homo sapiens, UniProt P41597).
T1 construct: expressed in transfected cells; host or cells: CHO-K1 (clone 7, CHO-CCR2B), stably transfected with pCDNA3/CCR2B; membrane fragments
T1 sequence (P41597 1-360 isoform P41597-2): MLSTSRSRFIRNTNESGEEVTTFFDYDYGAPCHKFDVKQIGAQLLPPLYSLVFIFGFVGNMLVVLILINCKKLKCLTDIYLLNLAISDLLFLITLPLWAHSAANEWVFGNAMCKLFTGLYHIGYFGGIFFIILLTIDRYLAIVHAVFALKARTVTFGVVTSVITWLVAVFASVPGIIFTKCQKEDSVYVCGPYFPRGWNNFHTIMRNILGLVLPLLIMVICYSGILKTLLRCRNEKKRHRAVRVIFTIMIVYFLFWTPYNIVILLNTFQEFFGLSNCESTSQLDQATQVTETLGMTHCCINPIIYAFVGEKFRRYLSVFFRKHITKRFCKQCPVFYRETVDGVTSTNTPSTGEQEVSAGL
Description: hMCP-1 receptor binding assay (125I-MCP-1, CHO-CCR2B cell membranes). From the text: The MCP-1 receptor B (CCR2B) cDNA was cloned by PCR from THP-1 cell RNA using suitable oligonucleotide primers based on the published MCP-1 receptor sequences (Charo et al., 1994, Proc. Natl. Acad. Sci. USA, 91, 2752). The resulting PCR products were cloned into vector PCR-II™ (InVitrogen, San Diego, Calif.). Error free CCR2B cDNA was subcloned as a Hind III-Not I fragment into the eukaryotic expression vector pCDNA3 (InVitrogen) to generate pCDNA3/CC-CKR2A and pCDNA3/CCR2B respectively.
Linearised pCDNA3/CCR2B DNA was transfected into CHO-K1 cells by calcium phosphate precipitation (Wigler et al., 1979, Cell, 16, 777). Transfected cells were selected by the addition of Geneticin Sulphate (G418, Gibco BRL) at 1 mg/ml, 24 hours after the cells had been transfected. Preparation of RNA and Northern blotting were carried out as described previously (Needham et al., 1995, Prot. Express. Purific., 6, 134). CHO-K1 clone 7 (CHO-CCR2B) was identified as the highest MCP-1 receptor B expresser.
CHO-CCR2B cells were grown in DMEM supplemented with 10% foetal calf serum, 2 mM glutamine, 1×Non-Essential Amino Acids, 1×Hypoxanthine and Thymidine Supplement and Penicillin-Streptomycin (at 50 μg streptomycin/ml, Gibco BRL). Membrane fragments were prepared using cell lysis/differential centrifugation methods as described previously (Siciliano et al., 1990, J. Biol. Chem., 265, 19658). […]

The subject of assay [2] is THP-1 cells. Description: MCP-1 mediated calcium flux in THP-1 cells. The assay is classed as cell-based, human. Conditions: stimulation of THP-1 cells with hMCP-1, FURA-2; read-out: EC50 of rise in [Ca2+]i. As for the experimental part: The human monocytic cell line THP-1 was grown in a synthetic cell culture medium RPMI 1640 supplemented with 10% foetal calf serum, 6 mM glutamine and Penicillin-Streptomycin (at 50 μg streptomycin/ml, Gibco BRL). THP-1 cells were washed in HBSS (lacking Ca^2+ and Mg^2+)+1 mg/ml BSA and resuspended in the same buffer at a density of 3×10^6 cells/ml. The cells were then loaded with […] FURA-2/AM for 30 min at 37° C., washed twice in HBSS, and resuspended at 1×10^6 cells/ml. THP-1 cell suspension (0.9 ml) was added to a 5 ml disposable cuvette containing a magnetic stirrer bar and 2.1 ml of prewarmed (37° C.) HBSS containing 1 mg/ml BSA, 1 mM MgCl2 and 2 mM CaCl2. The cuvette was placed in a fluorescence spectrophotometer (Perkin Elmer, Norwalk, Conn.) and preincubated for 4 min at 37° C. with stirring. Fluorescence was recorded over 70 sec and cells were stimulated by addition of hMCP-1 to the cuvette after 10 sec. [Ca^2+]i was measured by excitation at 340 nm and 380 nm alternately and subsequent measurement of the intensity of the fluorescence emission at 510 nm.
where the Kd for FURA-2 Ca^2+ complex at 37° C. was taken to be 224 nm. […]

In the case of “MCP-1: Human Monocyte Chemoattractant Protein-1, the chemokine ligand of the CCR2 receptor”, the “concentration of maximal cell migration” value in the assay with THP-1 cells [1] is 0.5-1.0 nm. Also, the half-inhibitory concentration (IC50) in the assay with MCP-1 receptor B (CCR2B) (cold competition, 100 pM 125I-labeled MCP-1, CHO-CCR2B membrane fragments) turned out to be 0.11 nM. The same substance registered a Kd in the assay with MCP-1 receptor B (CCR2B) (equilibrium binding, CHO-CCR2B membrane fragments) of 0.12 nM. In addition, the concentration for a half-maximal effect (EC50) in the assay on THP-1 cells [2] is roughly 2 nM.

In general, IC50 refers to the concentration needed to halve the response being measured. A low value points to inhibition by little substance. The Kd is the concentration at which binding is half-saturated. The low end stands for tighter binding, the high end for weaker binding. The term EC50 denotes the concentration that produces a half-maximal response.
